The source of these data is US20230287051A1, “INHIBITORS OF COMPLEMENT FACTOR C3 AND THEIR MEDICAL USES” (ZP SPV 3 K/S, priority 2020, published 2023).

Numbered stars: 1 amine (or outer) side, 2 acyl side, 3 side chain; on linkers, the order of the positions; unused ones are H or OH. Bridge positions count the residues as written; N and C are the ends. Square brackets hold non-standard residues; d marks the D form. Side chains are listed from the residue outwards. Peptide text beside a SMILES is read from it. * marks the point of attachment. Trp(1-Me) = Cn1cc(C[C@H](N)C(=O)O)c2ccccc21; C18 diacid = O=C(O)CCCCCCCCCCCCCCCCC(=O)*; γGlu = O=C(O)[C@H](CCC(=O)[*:2])N[*:1]; AEEA = NCCOCCOCC(=O)O; CH2 = C([*:1])[*:2]; Sar = CNCC(=O)O Where only a bound is given, the exact number is not on record here.

The experiment relates to classical complement pathway. The experiment is described as follows: In vitro haemolysis assay (inhibition of classical complement pathway). The format is cell-based. The following applies: human serum, sensitized sheep RBC, 30 minutes at 37° C., absorbance at 405 nm, n=>2; read-out: IC50, inhibition of hemolysis. How it is done:
The in vitro effect of some of the compounds described herein was assessed by measuring their inhibitory effect of the classical complement pathway in a haemolysis assay.
Briefly, compounds described herein and reference compounds were dissolved in DMSO and diluted in Tris/Casein Assay Buffer (10 mM Tris, 145 mM NaCl, 0.5 mM MgCl2, 0.15 mM CaCl2, and 0.1% W/V casein, adjusted to pH 7.4) as 9-point serial dilutions in a 96-well plate. Sensitized sheep red blood cells (RBC) coated with rabbit anti-sheep erythrocyte antiserum (Complement Technology, Inc., TX, USA) were washed in Tris/asein Assay Buffer. 50 μL from each well of diluted compound was added to a 96-well plate containing 50 μL diluted human serum (Complement Technology, Inc., TX, USA) and incubated for 15 minutes at room temperature. The serum dilution factor was optimized for every serum batch to obtain 70-90% of maximal haemolysis using the protocol. Then 50 μL sensitized sheep RBCs were added to all wells ([…]).
After 30 minutes of incubation at 37° C. with gentle agitation, the reaction was stopped by addition of 50 μL Tris STOP Buffer per well (10 mM EDTA, 10 mM Tris, 145 mM NaCl adjusted to pH 7.4). The RBCs were then removed by centrifugation and the resulting supernatant measured for hemolysis by absorbance at 405 nm.
The response was normalized relative to a positive and negative control (vehicle) to calculate the IC50 (nM) from the concentration response curve using the 4-parameter logistic (4PL) nonlinear model for curve fitting (Table 2). All values are based on n=>2 independent determinations.
For `CC[C@H](C)[C@@H]1NC(=O)[C@@H](NC(=O)[C@H](Cc2ccccc2)NC(=O)[C@H](CCC(=O)O)NC(=O)[C@H](CO)NC(C)=O)CSCSC[C@@H](C(=O)N[C@H](C(=O)NCC(=O)N[C@@H](C)C(=O)N[C@@H](CCC(=O)O)C(=O)N[C@@H](CO)C(N)=O)[C@@H](C)O)NC(=O)[C@H](CCCNC(=N)N)NC(=O)[C@H](Cc2c[nH]cn2)NC(=O)[C@H](CCC(=O)O)NC(=O)CNC(=O)[C@H](Cc2c[nH]c3ccccc23)NC(=O)[C@H](CC(=O)O)NC(=O)[C@H](CCC(N)=O)NC(=O)[C@H](Cc2cn(C)c3ccccc23)NC1=O` [Compound 1, Ac-SEF[C(1)]I[[1-Me-Trp]QDWGEHR[C(1)]TGAES-[NH2]] (Ac-SEFCI[Trp(1-Me)]QDWGEHRCTGAES-NH2; linker 4-14 via CH2), the IC50 was under 100 nM.
Regarding `CC[C@H](C)[C@@H]1NC(=O)[C@@H](NC(=O)[C@H](Cc2ccccc2)NC(=O)[C@H](CCC(=O)O)NC(=O)[C@H](CO)NC(C)=O)CSCSC[C@@H](C(=O)N(C)CC(=O)N[C@@H](CCC(=O)O)C(=O)NCC(=O)N[C@@H](CCC(=O)O)C(=O)NCCOCCOCC(=O)NCCOCCOCC(=O)N[C@@H](CCCCNC(=O)CC[C@H](NC(=O)CNC(=O)CC[C@H](NC(=O)CCCCCCCCCCCCCCCCC(=O)O)C(=O)O)C(=O)O)C(N)=O)NC(=O)[C@H](CCCNC(=N)N)NC(=O)[C@H](Cc2c[nH]cn2)NC(=O)[C@H](CCC(=O)O)NC(=O)CNC(=O)[C@H](Cc2c[nH]c3ccccc23)NC(=O)[C@H](CC(=O)O)NC(=O)[C@H](CCC(N)=O)NC(=O)[C@H](Cc2cn(C)c3ccccc23)NC1=O` [Compound 2, Ac-SEF[C(1)]I[1-Me-Trp]QDWGEHR[C(1)][Sar]EGE[Peg3][Peg3]-K([17-Carboxy-heptadecanoyl][yGlu]G[yGlu])-NH2] (Ac-SEFCI[Trp(1-Me)]QDWGEHRC[Sar]EGE[AEEA][AEEA]K([γGlu-Gly-γGlu-C18 diacid])-NH2; linker 4-14 via CH2), the IC50 is under 500 nM.
In the case of “Ac-SEF[C(1)]I[[1-Me-Trp]QDW[Sar]EHR[C(1)]TEGE[Peg3]ES-K([17-Carboxy-heptadecanoyl][yGlu])-NH2 [Compound 11]”, the IC50 is under 250 nM.
On to “Ac-SEY[C(1)]I[1-Me-Trp]QDW[Sar]EHR[C(1)]TEGE[Peg3]ES-K([17-Carboxy-heptadecanoyl][yGlu])-NH2 [Compound 18]”, for which the concentration for half-maximal inhibition (IC50) was under 250 nM.
Consider “Ac-KSGEF[C(1)]I[1-Me-Trp]QDW[Sar]EHR[C(1)]TEGE[Peg3][Peg3]-K([17-Carboxy-heptadecanoyl][yGlu]G[yGlu])-NH2 [Compound 21]”, for which the half-maximal inhibitory concentration (IC50) is under 100 nM.
For “Ac-SEF[C(1)]I[1-Me-Trp]QDWGEHR[C(1)][Sar]EGA-K([17-Carboxy-heptadecanoyl]-[yGlu]G[Peg3][yGlu][Peg3]-NH2 [Compound 4]”, the half-inhibitory concentration (IC50) was under 500 nM.
Regarding `CC[C@H](C)[C@@H]1NC(=O)[C@@H](NC(=O)[C@H](Cc2ccccc2)NC(=O)[C@H](C)NC(=O)[C@H](CCC(N)=O)NC(=O)[C@H](CCC(=O)O)NC(=O)[C@H](CO)NC(C)=O)CSCSC[C@@H](C(=O)N[C@H](C(=O)N[C@@H](CCC(=O)O)C(=O)NCC(=O)N[C@@H](CCC(=O)O)C(=O)NCCOCCOCC(=O)NCCOCCOCC(=O)N[C@@H](CCCCNC(=O)CC[C@H](NC(=O)CNC(=O)CC[C@H](NC(=O)CCCCCCCCCCCCCCCCC(=O)O)C(=O)O)C(=O)O)C(N)=O)[C@@H](C)O)NC(=O)[C@H](CCCNC(=N)N)NC(=O)[C@H](Cc2c[nH]cn2)NC(=O)[C@H](CCC(=O)O)NC(=O)CN(C)C(=O)[C@H](Cc2c[nH]c3ccccc23)NC(=O)[C@H](CC(=O)O)NC(=O)[C@H](CCC(N)=O)NC(=O)[C@H](Cc2cn(C)c3ccccc23)NC1=O` [Compound 25, Ac-SEQAF[C(1)]I[1-Me-Trp]QDW[Sar]EHR[C(1)]TEGE[Peg3][Peg3]-K([17-Carboxy-heptadecanoyl][yGlu]G[yGlu])-NH2] (Ac-SEQAFCI[Trp(1-Me)]QDW[Sar]EHRCTEGE[AEEA][AEEA]K([γGlu-Gly-γGlu-C18 diacid])-NH2; linker 6-16 via CH2), the IC50 is under 100 nM.
The same measure for `CC[C@H](C)[C@H](NC(=O)[C@H](N)Cc1ccc(O)cc1)C(=O)N[C@H]1CSSC[C@@H](C(=O)N(C)[C@H](C(N)=O)[C@@H](C)CC)NC(=O)[C@H](CCCNC(=N)N)NC(=O)[C@H](Cc2c[nH]cn2)NC(=O)[C@H](C)NC(=O)CN(C)C(=O)[C@H](Cc2c[nH]c3ccccc23)NC(=O)[C@H](CC(=O)O)NC(=O)[C@H](CCC(N)=O)NC(=O)[C@H](Cc2cn(C)c3ccccc23)NC(=O)[C@H](C(C)C)NC1=O` [Cp40, H-{d}YIC(*)V[1-Me-Trp]QDW[SarJAHRC(*)[N-Me-Ile]-NH2, reference compound]: under 100 nM; for “Ac-EGSAY[C(1)]I[1-Me-Trp]QDWGEHR[C(1)][Sar]EK[yGlu]-K([17-Carboxy-heptadecanoyl][yGlu][Peg3][Peg3])-NH2 [Compound 3]”: under 500 nM.
For the compound `CC[C@H](C)[C@@H]1NC(=O)[C@@H](NC(=O)[C@H](Cc2ccccc2)NC(=O)[C@@H](NC(=O)[C@H](CCC(N)=O)NC(=O)[C@H](CO)NC(=O)[C@H](CCC(=O)O)NC(C)=O)C(C)C)CSCSC[C@@H](C(=O)N[C@H](C(=O)N[C@@H](CCC(=O)O)C(=O)NCC(=O)N[C@@H](CCC(=O)O)C(=O)NCCOCCOCC(=O)NCCOCCOCC(=O)N[C@@H](CCCCNC(=O)CC[C@H](NC(=O)CNC(=O)CC[C@H](NC(=O)CCCCCCCCCCCCCCCCC(=O)O)C(=O)O)C(=O)O)C(N)=O)[C@@H](C)O)NC(=O)[C@H](CCCNC(=N)N)NC(=O)[C@H](Cc2c[nH]cn2)NC(=O)[C@H](CCC(=O)O)NC(=O)CN(C)C(=O)[C@H](Cc2c[nH]c3ccccc23)NC(=O)[C@H](CC(=O)O)NC(=O)[C@H](CCC(N)=O)NC(=O)[C@H](Cc2cn(C)c3ccccc23)NC1=O` [Compound 23, Ac-ESQVF[C(1)]I[1-Me-Trp]QDW[Sar]EHR[C(1)]TEGE[Peg3][Peg3]-K([17-Carboxy-heptadecanoyI][yGlu]G[yGlu])-NH2] (Ac-ESQVFCI[Trp(1-Me)]QDW[Sar]EHRCTEGE[AEEA][AEEA]K([γGlu-Gly-γGlu-C18 diacid])-NH2; linker 6-16 via CH2), the concentration for half-maximal inhibition (IC50) is under 100 nM.
For “Ac-SEF[C(1)]I[1-Me-Trp]QDW[Sar]EHR[C(1)][Sar]E[Peg3][Peg3]-K([17-Carboxy-heptadecanoyl]-[yGlu]G[yGlu]-NH2 [Compound 8]” the value was under 500 nM; for `CC[C@H](C)[C@@H]1NC(=O)[C@@H](NC(=O)[C@H](Cc2ccccc2)NC(=O)[C@H](CCC(=O)O)NC(=O)[C@H](CO)NC(C)=O)CSCSC[C@@H](C(=O)N(C)CC(=O)N[C@@H](CCC(=O)O)C(=O)NCCOCCOCC(=O)NCCOCCOCC(=O)N[C@@H](CCCCNC(=O)CC[C@H](NC(=O)CNC(=O)CC[C@H](NC(=O)CCCCCCCCCCCCCCCCC(=O)O)C(=O)O)C(=O)O)C(N)=O)NC(=O)[C@H](CCCNC(=N)N)NC(=O)[C@H](Cc2c[nH]cn2)NC(=O)[C@H](CCC(=O)O)NC(=O)CN(C)C(=O)[C@H](Cc2c[nH]c3ccccc23)NC(=O)[C@H](CC(=O)O)NC(=O)[C@H](CCC(N)=O)NC(=O)[C@H](Cc2cn(C)c3ccccc23)NC1=O` [Compound 7] (Ac-SEFCI[Trp(1-Me)]QDW[Sar]EHRC[Sar]E[AEEA][AEEA]K([γGlu-Gly-γGlu-C18 diacid])-NH2; linker 4-14 via CH2), under 500 nM; for “Ac-EQEVF[C(1)]I[1-Me-Trp]QDW[Sar]EHR[C(1)]TEGE[Peg3][Peg3]-K([17-Carboxy-heptadecanoyl][yGlu]G[yGlu])-NH2 [Compound 22]”, under 100 nM.
Consider “Ac-SEFC(2)I[1-Me-Trp]QDWGEHRC(2)TGAES-NH2 [Compound 31]”, for which the IC50 is under 250 nM.
With “Ac-SEF[C(1)]I[1-Me-Trp]QDW[SarJAHR[C(1)]TEGE[Peg3]ES-K([17-Carboxy-heptadecanoyl][yGlu])-NH2 [Compound 13]”, the IC50 is under 250 nM.
The same measure for “Ac-SEF[C(1)]I[1-Me-Trp]QDWGEHR[C(1)]TGAES[Peg3][Peg3]-K([17-Carboxy-heptadecanoyl][yGlu]G[yGlu])-NH2 [Compound 14]”: under 250 nM; for “Ac-GEF[C(1)]I[1-Me-Trp]QDWGEHR[C(1)][Sar]EAE[Peg3][Peg3]-K([17-Carboxy-heptadecanoyl][yGlu]G[yGlu])-NH2 [Compound 6]”: under 500 nM.
For `CC[C@H](C)[C@@H]1NC(=O)[C@@H](NC(=O)[C@H](Cc2ccccc2)NC(=O)[C@H](CCC(=O)O)NC(C)=O)CSCSC[C@@H](C(=O)N[C@H](C(=O)N[C@@H](CCC(=O)O)C(=O)N[C@@H](C)C(=O)NCCOCCOCC(=O)NCCOCCOCC(=O)N[C@@H](CCCCNC(=O)CC[C@H](NC(=O)CNC(=O)CC[C@H](NC(=O)CCCCCCCCCCCCCCCCC(=O)O)C(=O)O)C(=O)O)C(N)=O)[C@@H](C)O)NC(=O)[C@H](CCCNC(=N)N)NC(=O)[C@H](Cc2c[nH]cn2)NC(=O)[C@H](CCC(=O)O)NC(=O)CN(C)C(=O)[C@H](Cc2c[nH]c3ccccc23)NC(=O)[C@H](CC(=O)O)NC(=O)[C@H](CCC(N)=O)NC(=O)[C@H](Cc2cn(C)c3ccccc23)NC1=O` [Compound 12, Ac-EF[C(1)]I[1-Me-Trp]QDW[Sar]EHR[C(1)]TEA[Peg3][Peg3]-K([17-Carboxy-heptadecanoyl][yGlu]G[yGlu])-NH2] (Ac-EFCI[Trp(1-Me)]QDW[Sar]EHRCTEA[AEEA][AEEA]K([γGlu-Gly-γGlu-C18 diacid])-NH2; linker 3-13 via CH2) the value was under 100 nM.

In general, IC50 refers to the midpoint of a concentration-inhibition curve.
